Measurements from patent US20200370087A1, “METHOD FOR DETERMINING MICROBIAL SUSCEPTIBILITY TO ANTIBIOTIC AGENTS” (Ascilion AB, priority 2017, published 2020).

What was measured:
[1] = tested on: Escherichia coli (ATCC 25922); assay: Glucose consumption susceptibility test, blood culture diluted in MHB with glucose (Example 1); assay type: cell-based; parameters: glucose concentration, t = 0 / glucose concentration, t = 60 / glucose concentration, t = 120 / glucose concentration, t = 180 / dC/dT (rate of change in glucose concentration) / glucose concentration, t = 240: unit not given here; settings: for F = the rate of change in glucose concentration in relation to the reference / dC/dT (rate of change in glucose concentration) / glucose concentration, t = 0 / glucose concentration, t = 60 / glucose concentration, t = 120 / glucose concentration, t = 180 / glucose concentration, t = 240: E. coli; for glucose concentration, t = 0: 0 minutes; for glucose concentration, t = 60: 60 minutes; for glucose concentration, t = 120: 120 minutes; for glucose concentration, t = 180: 180 minutes; for glucose concentration, t = 240: 240 minutes
Method: (§1) Strains of Escherichia coli (ATCC 25922), Enterococcus faecalis (ATCC 29212) and Staphylococcus aureus (ATCC 29213) were inoculated in blood culture bottles (SVA, Uppsala, Sweden) and cultivated according to the manufacturer's instructions until positive.
(§2) Medium from each blood culture bottle was diluted 1:100 with cation adjusted Mueller-Hinton broth (SVA, Uppsala, Sweden) supplemented with glucose to a concentration of 1.0 mg/mL.
(§3) Glucose concentrations were measured at 0, 60, 120, 180, and 240 minutes using a WaveSense Jazz glucometer (AgaMatrix, Inc., Salem, N.H., USA) with accompanying test strips.
(§4) Susceptibility scores corresponding to MIC values were calculated as described above. A 80% threshold was applied, i.e. the lowest concentration of antibiotic that entailed a rate of change in glucose concentration that was equal to or less than 80% of the reference was selected as the Minimal Inhibitory Concentration. The rate of change was calculated between the measurements at 60 and 180 minutes.

[2] = tested on: Enterococcus faecalis (ATCC 29212); assay: as above; assay type: cell-based; parameters: glucose concentration, t = 0 / glucose concentration, t = 60 / glucose concentration, t = 120 / glucose concentration, t = 180 / glucose concentration, t = 240 / dC/dT (rate of change in glucose concentration): unit not given here; settings: for F = the rate of change in glucose concentration in relation to the reference / dC/dT (rate of change in glucose concentration) / glucose concentration, t = 0 / glucose concentration, t = 60 / glucose concentration, t = 120 / glucose concentration, t = 180 / glucose concentration, t = 240: E. faecalis; for glucose concentration, t = 0: 0 minutes; for glucose concentration, t = 60: 60 minutes; for glucose concentration, t = 120: 120 minutes; for glucose concentration, t = 180: 180 minutes; for glucose concentration, t = 240: 240 minutes
Method: as §1, §2, §3, §4

## gentamicin
[1]; antibiotic 0.25 μg/mL
  F = the rate of change in glucose concentration in relation to the reference: 139%
  dC/dT (rate of change in glucose concentration): 86
  glucose concentration, t = 0: 149
  glucose concentration, t = 60: 152
  glucose concentration, t = 120: 144
  glucose concentration, t = 180: 58
[1]; antibiotic 0.5 μg/mL
  F = the rate of change in glucose concentration in relation to the reference: 121%
  dC/dT (rate of change in glucose concentration): 75
  glucose concentration, t = 0: 144
  glucose concentration, t = 60: 147
  glucose concentration, t = 120: 147
  glucose concentration, t = 180: 72
[1]; antibiotic 1 μg/mL
  F = the rate of change in glucose concentration in relation to the reference: 77%
  dC/dT (rate of change in glucose concentration): 48
  glucose concentration, t = 0: 144
  glucose concentration, t = 60: 155
  glucose concentration, t = 120: 148
  glucose concentration, t = 180: 111
  glucose concentration, t = 240: 53
[1]; antibiotic 2 μg/mL
  F = the rate of change in glucose concentration in relation to the reference: 9%
  dC/dT (rate of change in glucose concentration): 6
  glucose concentration, t = 60: 161
  glucose concentration, t = 120: 151
  glucose concentration, t = 180: 143
  glucose concentration, t = 240: 140
[1]; antibiotic 4 μg/mL
  F = the rate of change in glucose concentration in relation to the reference: 7%
  dC/dT (rate of change in glucose concentration): 5
  glucose concentration, t = 0: 147
  glucose concentration, t = 60: 163
  glucose concentration, t = 120: 157
  glucose concentration, t = 180: 148
  glucose concentration, t = 240: 148
[1]; antibiotic 8 μg/mL
  F = the rate of change in glucose concentration in relation to the reference: 7%
  dC/dT (rate of change in glucose concentration): 5
  glucose concentration, t = 0: 144
  glucose concentration, t = 60: 156
  glucose concentration, t = 120: 153
  glucose concentration, t = 180: 150
  glucose concentration, t = 240: 144
[1]; antibiotic 16 μg/mL
  F = the rate of change in glucose concentration in relation to the reference: 1%
  dC/dT (rate of change in glucose concentration): 1
  glucose concentration, t = 0: 143
  glucose concentration, t = 60: 155
  glucose concentration, t = 120: 152
  glucose concentration, t = 180: 149
  glucose concentration, t = 240: 153
[1]; antibiotic 32 μg/mL
  F = the rate of change in glucose concentration in relation to the reference: 6%
  dC/dT (rate of change in glucose concentration): 4
  glucose concentration, t = 0: 148
  glucose concentration, t = 60: 158
  glucose concentration, t = 120: 155
  glucose concentration, t = 180: 150
  glucose concentration, t = 240: 147
[1]; E.coli, 80% threshold of reference rate of change, 60 to 180 minutes, N/A = not susceptible, no MIC value can be calculated
  MIC, Measured: 1 µg/mL
[2]; antibiotic 0.25 μg/mL
  F = the rate of change in glucose concentration in relation to the reference: 144%
  dC/dT (rate of change in glucose concentration): 52
  glucose concentration, t = 0: 142
  glucose concentration, t = 60: 156
  glucose concentration, t = 120: 143
  glucose concentration, t = 180: 87
[2]; antibiotic 0.5 μg/mL
  F = the rate of change in glucose concentration in relation to the reference: 148%
  dC/dT (rate of change in glucose concentration): 53
  glucose concentration, t = 0: 146
  glucose concentration, t = 60: 160
  glucose concentration, t = 120: 138
  glucose concentration, t = 180: 97
[2]; antibiotic 1 μg/mL
  F = the rate of change in glucose concentration in relation to the reference: 106%
  dC/dT (rate of change in glucose concentration): 38
  glucose concentration, t = 0: 145
  glucose concentration, t = 60: 150
  glucose concentration, t = 120: 138
  glucose concentration, t = 180: 100
  glucose concentration, t = 240: 36
[2]; antibiotic 2 μg/mL
  F = the rate of change in glucose concentration in relation to the reference: 75%
  dC/dT (rate of change in glucose concentration): 27
  glucose concentration, t = 0: 147
  glucose concentration, t = 60: 156
  glucose concentration, t = 120: 143
  glucose concentration, t = 180: 110
  glucose concentration, t = 240: 75
[2]; antibiotic 4 μg/mL
  F = the rate of change in glucose concentration in relation to the reference: 46%
  dC/dT (rate of change in glucose concentration): 17
  glucose concentration, t = 0: 147
  glucose concentration, t = 60: 154
  glucose concentration, t = 120: 151
  glucose concentration, t = 180: 118
  glucose concentration, t = 240: 104
[2]; antibiotic 8 μg/mL
  F = the rate of change in glucose concentration in relation to the reference: 14%
  dC/dT (rate of change in glucose concentration): 5
  glucose concentration, t = 0: 143
  glucose concentration, t = 60: 155
  glucose concentration, t = 120: 134
  glucose concentration, t = 180: 136
  glucose concentration, t = 240: 140
[2]; antibiotic 16 μg/mL
  F = the rate of change in glucose concentration in relation to the reference: 18%
  dC/dT (rate of change in glucose concentration): 6
  glucose concentration, t = 0: 147
  glucose concentration, t = 60: 160
  glucose concentration, t = 120: 152
  glucose concentration, t = 180: 155
[2]; antibiotic 32 μg/mL
  F = the rate of change in glucose concentration in relation to the reference: 3%
  dC/dT (rate of change in glucose concentration): 1
  glucose concentration, t = 0: 143
  glucose concentration, t = 60: 151
  glucose concentration, t = 180: 142
  glucose concentration, t = 240: 148
[2]; E.faecalis, 80% threshold of reference rate of change, 60 to 180 minutes, N/A = not susceptible, no MIC value can be calculated
  MIC, Measured: 2 µg/mL
